Test results as given in US9289429B2, “Compounds and methods for inhibiting phosphate transport” (Ardelyx, Inc., priority 2010, dated 2016).

Columns and labels:
rat NaP2b (SLC34A2) = target: T1, rat NaP2b (SLC34A2) (Rattus norvegicus, UniProt Q9JJ09); experiment: NaP2b-mediated Pi transport (33P uptake) in transfected HEK293 cells, rat transporter; type: cell-based; details: HEK293 cells transfected with rat NaP2b, 33P phosphate uptake, 100 uM KH2PO4; read-out: pIC50 range for rat Nap2b (converted)
T1 construct: host or cells: HEK293
T1 sequence (Q9JJ09 1-695): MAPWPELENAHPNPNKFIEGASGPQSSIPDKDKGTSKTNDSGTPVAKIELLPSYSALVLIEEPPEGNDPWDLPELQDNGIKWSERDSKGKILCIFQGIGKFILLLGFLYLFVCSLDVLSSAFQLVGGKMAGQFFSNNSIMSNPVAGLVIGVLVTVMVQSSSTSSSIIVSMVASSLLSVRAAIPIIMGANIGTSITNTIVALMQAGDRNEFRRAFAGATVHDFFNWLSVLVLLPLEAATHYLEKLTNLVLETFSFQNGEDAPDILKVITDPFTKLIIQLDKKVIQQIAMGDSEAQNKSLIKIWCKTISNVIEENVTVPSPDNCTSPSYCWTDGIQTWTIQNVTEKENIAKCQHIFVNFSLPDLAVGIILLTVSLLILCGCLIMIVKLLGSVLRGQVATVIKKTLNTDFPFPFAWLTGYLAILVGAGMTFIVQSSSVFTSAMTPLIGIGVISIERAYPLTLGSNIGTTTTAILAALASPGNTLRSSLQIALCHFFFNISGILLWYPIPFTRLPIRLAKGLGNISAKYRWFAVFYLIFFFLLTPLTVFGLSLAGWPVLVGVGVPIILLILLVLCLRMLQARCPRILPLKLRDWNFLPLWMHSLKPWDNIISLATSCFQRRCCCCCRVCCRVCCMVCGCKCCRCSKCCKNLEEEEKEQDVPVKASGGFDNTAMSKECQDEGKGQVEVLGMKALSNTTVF
Procedure: HEK293 cells were obtained from the American Type Culture collection and propagated per their instructions. Expression clones for rat and human NaP2b (SLC34A2) were obtained from Open Biosystems (Catalog numbers MRN1768-9510282, and MHS1010-99823026, respectively). The sequence of the human protein was mutated to insert a threonine after residue 37, and to introduce a N39D mutation.
The rate of phosphate (Pi) uptake into HEK293 cells was measured using a modification of the method described by Mohrmann et al. (Mohrmann, I., Mohrmann, M., Biber, J., and Murer, H. (1986) Am. J. Phys. 250(3 Pt 1):G323-30.) Transfected HEK293 cells were treated with a pharmacological agent to minimize endogenous PiT-mediated phosphate transport activity, such that the only remaining sodium-dependent phosphate transport activity is that which was bestowed by introduction of the NaP2b genes.
Cells were seeded into 96-well plates at 25,000 cells/well and cultured overnight. Lipofectamine 2000 (Invitrogen) was used to introduce the NaP2b cDNA, and the cells were allowed to approach confluence during a second overnight incubation. […] Cells were then overlayed with either choline uptake buffer or sodium uptake buffer (14 mM Tris, 137 mM sodium chloride, 5.4 mM KCl, 2.8 mM CaCl2, 1.2 mM MgSO4, 100 uM KH2PO4, PiT-silencing agent, 1 mg/mL Bovine Serum Albumin, pH 7.4) containing 6-9 uCi/mL ^33P orthophosphoric acid (Perkin Elmer) and test compound. Each compound was tested at twelve concentrations ranging from 0.1 nM to 30 uM. Assays were run in duplicate.
After incubation for 3-30 minutes at room temperature, assay mixtures were removed, and the cells were washed twice with ice cold stop solution (137 mM sodium chloride, 14 mM Tris, pH 7.4). Cells were lysed by addition of 20 μL 0.1% Tween 80 followed by 100 μL scintillation fluid, and counted using a TopCount (Perkin Elmer).
pIC50 (the negative log of the IC50) values of the test compounds were calculated using GraphPad Prism.

Sprague-Dawley rats = experiment: In vivo bolus phosphate challenge; details: rat, oral, Drug Dose 30 (unit not given), serum 30 min post phosphate bolus
Procedure: By pretreating animals with a low phosphorus diet followed by the subsequent dosing of a phosphorus bolus, serum phosphorus levels were monitored after 30 minutes as a surrogate for intestinal phosphorus absorption. […] The in vivo bolus phosphorus challenge model used here mimics this model in rats.
Male, 7-week-old Sprague-Dawley rats (Charles-River laboratories international, Hollister, Calif.) were allowed to acclimate for a minimum of 3 days before switching to a synthetic low-phosphorus diet (TD.85010, Harlan Teklad, Madison, Wis.) which contains 0.1% phosphorus and 0.6% calcium. At day 5, testing compounds or vehicle alone (as indicated) were orally administered at the indicated dose in a volume of 5 ml/kg, followed by a bolus gavage of monobasic sodium phosphate (1 mmol in 1 ml) 15 min after compound dosing. Serum was collected via retroorbital bleeding 30 min post phosphate bolus and phosphate levels were determined utilizing an ACE ALERA blood chemistry analyzer (Alfa Wassermann Diagnostic Technologies, West Caldwell, N.J.).
The extent of inhibition by test compounds on the elevation of serum phosphate levels in response to the bolus of phosphate is shown in Table 3 (data are expressed as % Inhibition, with 6-10 animals per data point). The differences between groups were evaluated by one-way analysis of variance with Dunnett's post hoc tests.

[1] = Fecal recovery of orally administered compounds; type: in vivo; details: rat, oral gavage, feces collected until 48 hr after dosing, same animals as Example 22
Procedure: Quantitative determination of test compound level in feces after oral gavage was performed using the same set of animals used to determine test compound concentration in plasma (Example 22). The animals were kept in metabolic cages and feces were collected from the time of dosing until 48 hr after dosing. Upon collection, feces was dried by lyophilization and ground to a visually homogenous powder. Duplicate samples of ground feces from each individual animal were weighed out and extracted using organic solvent. Extracted samples were then diluted into mobile phase and test compound levels were quantitatively determined by LC-MS/MS analysis as described in “Example 22” except that the standard curve was prepared in a feces matrix. Extraction conditions were not optimized for individual compounds, and thus may represent a minimal level of recovery.

[2] = Determination of compound Cmax and AUC after oral gavage; type: in vivo; details: Sprague-Dawley, rat plasma, actual oral dose 8.9 mg/kg (Example 11) or 10 mg/kg (Example 2)
Procedure: Sprague-Dawley rats were orally gavaged with test article at a nominal dose of 2.5 or 10 mg/kg and blood was collected at 0.5, 1, 2 and 4 h. Blood samples were processed to plasma using K2EDTA as an anticoaglulant. Plasma samples were treated with acetonitrile containing an internal standard, precipitated proteins removed by centrifugation. Supernatants were analyzed by LC-MS/MS and compound concentrations were determined by interpolated from a standard curve prepared in plasma. All compounds were orally dosed at the dosage shown, and pharmacokinetic parameters determined

Row | SMILES | IC50 (rat NaP2b (SLC34A2)) | % Inhibition of Serum P elevation (Sprague-Dawley rats) | % recovered in feces [1] | Cmax ([2]; LLOQ 5 ng/mL) | AUC ([2]; samples 0.5-4 h)
1 | O=C(O)CCSCc1cccc(C(=O)Nc2ccc(N3CCCCC3)cc2C(=O)Nc2cnc(-c3cccc(C(F)(F)F)c3)nc2)c1 [Example 4, 3-((3-((4-(Piperidin-1-yl)-2-((2-(3-(trifluoromethyl)phenyl)pyrimidin-5-yl)carbamoyl)phenyl)carbamoyl)benzyl)thio)propanoic acid] | 1 to 7.94 µM | 11% |  |  | 
2 | O=C(O)CCSCc1cccc(C(=O)Nc2ccc(N3CCCCC3)cc2C(=O)Nc2cnc(-c3ccccc3)nc2)c1 [Example 2, 3-((3-((2-((2-Phenylpyrimidin-5-yl)carbamoyl)-4-(piperidin-1-yl)phenyl)carbamoyl)benzyl)thio)propanoic acid] | 1 to 7.94 µM |  | 16% | 645 ng/mL | 822 ng·h/mL
